US20240282989A1, “PHENOTHIAZINE DERIVATIVES AND REDOX-FLOW BATTERIES” (University of Kentucky Research Foundation, priority 2023, published 2024)

How the values were obtained:
Format in all cases: physicochemical
[1] = Solubility / miscibility measurement (NMR method, internal standard); settings: for solubility: organic solvent or mixture, NMR method
Procedure: The MEEPRT-TFSI monomer is a viscous liquid at room temperature, the miscibility was determined in acetonitrile and 0.1 M TEATFSI in acetonitrile. In both solvents, it is miscible when mixed with 1:10, 10:1, and 1:1 ratio by wt. of acetonitrile:redoxomers. Solubility of redoxomers were determined by NMR method using 1,4-bis(trifluoromethyl)benzene as an internal standard.

[2] = Cyclic voltammetry of monomer and dimer; settings: for 1st oxidation potential / ipa/ipc / peak separation: 1 mM in 0.1 M TEABF4/ACN; for redox event (number of electrons, reversibility) / oxidation potential: 10 mM solution; for redox event (number of electrons, reversibility): cyclic voltammetry; for ipa/ipc / peak separation: 1st oxidation; for oxidation potential: referenced to Fc/Fc+, glassy carbon working electrode
Procedure: The electrochemical stability and reversibility of redox-events were determined by cyclic voltammetry experiments, which were carried out in a CH Instrument potentiostat with glassy carbon electrode as a working electrode, Pt-wire electrode as a counter electrode and a silver electrode as a reference electrode. […]

[3] = Cross-over experiments in custom-built H-cell with FAPQ-375-PP membrane; settings: 0.1 M redoxomer in anhydrous acetonitrile; two layers FAPQ-375-PP membrane; CV of blank side up to 24 h
Procedure: We compared cross-over fractions of our newly synthesized redoxomers with our previous redoxomers such as MEEPT and EPRT-TFSI using a custom-built H-cell. A stack of two layer of FAPQ-375-PP membrane pre-soaked in acetonitrile for 24 h was used as membrane between two compartments of H-cell. For each set of experiment, a 0.1 M solution of redoxomer in anhydrous acetonitrile on the left side and acetonitrile (blank solution) on the right side. The cross over fractions were determined by cyclic voltammetry of the solution from the blank side in 0 h, 2 h, 4 h, 8 h, 12 h, and 24 h in a argon-filled glovebox.

Structure (SMILES)	solubility ([1]; in 0.1 M TEATFSI in acetonitrile)	solubility ([1]; in acetonitrile)	1st oxidation potential [2]	redox event (number of electrons, reversibility) [2]	ipa/ipc [2]	peak separation [2]	oxidation potential [2]	cross over fraction [3]	miscibility ([1]; in 0.1 M TEATFSI in acetonitrile, 1:10, 10:1 and 1:1 ratio by wt.)	miscibility ([1]; in acetonitrile, 1:10, 10:1 and 1:1 ratio by wt. acetonitrile:redoxomers, room temperature)	miscibility of radical cations ([1]; in acetonitrile, 1:1, 10:1 and 1:10 by wt.)
CC(CN1c2ccccc2Sc2ccccc21)[N+](C)(C)CCOCCOCC[N+](C)(C)C(C)CN1c2ccccc2Sc2ccccc21 (stereo not drawn) [EEEPRT-TFSI2]	1200 mM	1600 mM	0.54 V	two-electron reversible redox event	1.06	59 mV	same potential	0.0037			
COCCOCC[N+](C)(C)C(C)CN1c2ccccc2Sc2ccccc21 (stereo not drawn) [MEEPRT-TFSI]			0.54 V	single electron reversible redox reaction	1.06	59 mV	0.54 V	0.0346	miscible	miscible	
COCCOCCN1c2ccccc2Sc2ccccc21 [MEEPT, reference compound]								0.0471			
CC(C[N+]1c2ccccc2Sc2ccccc21)[N+](C)(C)CCOCCOCC[N+](C)(C)C(C)C[N+]1c2ccccc2Sc2ccccc21 (stereo not drawn) [dimer radical cation]											completely miscible
